From patent US20060275847A1, “Method for assessing biofilms” (priority 2002, published 2006)

Key:
Type in all cases: cell-based, Escherichia coli
[1] = tested on: tac promoter (GFP expression) in E. coli CL182; assay: GFP expression from the IPTG responsive tac promoter in adhered CL182; details: without IPTG versus with IPTG (0.2 μM) in Luria broth
Experimental: (§1) The strains were mixed and grown in the presence of selective antibiotics (tetracycline, ampicillin or chloramphenicol) and the effects were visualised using the IN Cell Analyzer.
(§2) E. coli cultures were grown in batch culture at 37° C. for 16 hours under selective pressure. Cells were pelleted by centrifugation, washed and resuspended in cold PBS. OD600 mn was normalised (to 1) for both cultures and solutions were diluted ten fold in cold PBS. Cells (100 μl) were allowed to settle and adhere to the surface of a Packard microtitre plate (Packard #6005182) at 4° C. for 1 hour. Adhered E. coli were washed twice with PBS (100 μl). Luria broth (100 μl) with or without IPTG (0.2 μM), and ampicillin (100 μg/ml), tetracycline (10 μg/ml) and chloramphenicol (34 μg/ml) were added to adhered cells and incubated at 37° C. for 4 hours and 16 hours. Cells were washed twice with PBS and incubated for 10 minutes in Hoechst 33342 (0.1 μM in PBS). Cells were washed in PBS and imaged sequentially using the UV (365 nm) and blue (488 nm) laser lines to excite Hoechst 33342 and GFP respectively. […]
(§3) The images were then analysed using the algorithms described in FIGS. 7 to 14. […] In addition, the overlap between green and blue fluorescent biofilm was calculated in 3D.

XL1-blue and CL182 cells = assay: Differential 3D analysis of mixed adhered E. coli cultures grown with selective antibiotics; details: for inhibition of biofilm development: summary statement referring to FIGS. 17 and 18
Experimental: as §1
E. coli cultures were grown in batch culture at 37° C. for 16 hours under selective pressure. Cells were pelleted by centrifugation, washed and resuspended in cold PBS. OD600 mn was normalised (to 1) for both cultures and solutions were diluted ten fold in cold PBS. Cells (100 μl) were allowed to settle and adhere to the surface of a Packard microtitre plate (Packard #6005182) at 4° C. for 1 hour. Adhered E. coli were washed twice with PBS (100 μl). Luria broth (100 μl) with or without IPTG (0.2 μM), and ampicillin (100 μg/ml), tetracycline (10 μg/ml) and chloramphenicol (34 μg/ml) were added to adhered cells and incubated at 37° C. for 4 hours and 16 hours. Cells were washed twice with PBS and incubated for 10 minutes in Hoechst 33342 (0.1 μM in PBS). Cells were washed in PBS and imaged sequentially using the UV (365 nm) and blue (488 nm) laser lines to excite Hoechst 33342 and GFP respectively. Emission light was captured using the 450BP65 and 565BP50 filters and collected as 12 bit images; 24 slices were acquired per condition with 1 μm spacing between them.
The images were then analysed using the algorithms described in FIGS. 7 to 14. The voxel dimensions were established prior to conducting the experiment using sub-resolution and super-resolution beads. The analysis thus provides data on the amount of biofilm in both colour planes in three dimensions as described previously. In addition, the overlap between green and blue fluorescent biofilm was calculated in 3D.

E. coli CL182 = assay: Differential 3D analysis of adhered E. coli cultures (confocal imaging, adhered culture volume); details: Luria broth, chloramphenicol 34 μg/ml, 37° C., 4 hours and 16 hours
Experimental: as §1, §2, §3

E. coli XL1-blue = assay: as above; details: Luria broth, chloramphenicol 34 μg/ml, 37° C., 4 hours and 16 hours
Experimental: as §1, §2, §3

Structure (SMILES) | reduction in the expression of GFP from the tac promoter by CL182 in the absence of IPTG [1] | differential inhibition of growth of XL1-blue and CL182 cells (XL1-blue and CL182 cells; ampicillin 100 μg/ml, tetracycline 10 μg/ml, 37° C., 4 hours and 16 hours, XL1-blue tetracycline resistant, CL182 ampicillin resistant) | inhibition of biofilm development (XL1-blue and CL182 cells) | inhibition of growth of CL182 (E. coli CL182) | inhibition of growth of XL1-blue (E. coli XL1-blue)
CC(C)S[C@@H]1O[C@H](CO)[C@H](O)[C@H](O)[C@H]1O [IPTG] | ~25% |  |  |  | 
CC1(C)S[C@@H]2[C@H](NC(=O)[C@H](N)c3ccccc3)C(=O)N2[C@H]1C(=O)O [ampicillin] |  | Differential inhibition | differentially inhibit |  | 
O=C(N[C@H](CO)[C@H](O)c1ccc([N+](=O)[O-])cc1)C(Cl)Cl [chloramphenicol] |  |  | differentially inhibit | strongly inhibited | strongly inhibited
